In brackets after ≈: the same amount, converted by molar mass.
What was measured:
[1] = test system: Bacillus cereus UW85; assay: Antibacterial MIC, two-fold serial dilution; type: cell-based; settings: Gram +ve bacteria, LB broth, 37°C, 24 h, visual (no turbidity), read-out: MIC B. cereus
Protocol: (§1) The antimicrobial activity of the synthesized thiadiazolopyrimidine compounds was studied toward diverse pathogenic strains, such as gram-positive bacteria (Staphylococcus aureus ATCC 29213 and Bacillus cereus UW85), gram-negative bacteria (Escherichia coli ATCC 12435 and Pseudomonas aeruginosa ATCC 29260), and fungi (Candida albicans and Aspergillus fumigatus 293). The assessment was performed through the two-fold dilution technique using Ampicillin (antibacterial) and Fluconazole (antifungal) as the reference drugs[28],[29]. The minimal inhibitory concentration (MICs, µg/mL) of the synthesized derivatives for prohibiting microbial growth was determined through the visual detection (no turbidity) technique.
(§2) The synthesized thiadiazolopyrimidine-based compounds were evaluated and adopted for antibacterial and antifungal effectiveness using the approved procedure[38],[39].
(§3) Minimal inhibitory concentrations (MICs) were determined by serial dilution technique using 96-multiwell microtiter plates. The investigated compounds were dissolved in DMSO 100% to prepare stock solutions of 5000 µg/mL. Two-fold serial dilutions of the dissolved compounds were performed in LB broth providing eight different concentrations (1250, 625, 312.5, 156, 78, 39, 19.5 µg/mL). Overnight cultures of microorganisms were diluted to 1 ×10^6 CFU/mL in LB broth, and 20 mL of the diluted cultures were added to the test solutions (50 mL) in the wells (one well per concentration per bacterial strain). The plates were incubated at 37°C for 24 h. MIC was detected visually as the least concentration inhibiting bacterial growth (no turbidity) and the activity of the tested compounds was estimated in comparison to ampicillin.

[2] = test system: Escherichia coli ATCC 12435; assay: Antibacterial MIC, two-fold serial dilution; type: cell-based; settings: ATCC12435, Gram −ve bacteria, LB broth, 37°C, 24 h, visual (no turbidity)
Protocol: as §1, §2, §3

[3] = test system: Pseudomonas aeruginosa ATCC 29260; assay: Antibacterial MIC, two-fold serial dilution; type: cell-based; settings: ATCC29260, Gram −ve bacteria, LB broth, 37°C, 24 h, visual (no turbidity), read-out: MIC P. aeruginosa
Protocol: as §1, §2, §3

[4] = test system: Staphylococcus aureus ATCC 29213; assay: Antibacterial MIC, two-fold serial dilution; type: cell-based; settings: ATCC29213, Gram +ve bacteria, LB broth, 37°C, 24 h, visual (no turbidity), read-out: MIC S. aureus
Protocol: as §1, §2, §3

[5] = test system: Aspergillus fumigatus 293; assay: Antifungal MIC, two-fold serial dilution; type: cell-based; settings: Fungi, glucose minimal medium, 30°C, 48 h, visual (no turbidity)
Protocol: as §1, §2
(§4) Minimal inhibitory concentrations (MICs) were determined by serial dilution technique using 96-multiwell microtiter plates. The investigated compounds were dissolved in DMSO 100% to prepare stock solutions of 5000 µg/mL. Two-fold serial dilutions of the dissolved compounds were performed in glucose minimal medium providing eight different concentrations (1250, 625, 312.5, 156, 78, 39, 19.5 µg/mL). The microorganisms were diluted to 1 ×10^3 SFU/mL in glucose minimal medium, and 20 µL of the diluted culture was added to the test solutions (50 µL) in the wells (one well per concentration). The plates were incubated at 30°C for 48 h. MIC was detected visually as the least concentration inhibiting fungal growth (no turbidity) and the activity of the tested compounds was estimated in comparison to fluconazole.

[6] = test system: Candida albicans; assay: Antifungal MIC, two-fold serial dilution; type: cell-based; settings: Fungi, glucose minimal medium, 30°C, 48 h, visual (no turbidity)
Protocol: as §1, §2, §4

[7] = test system: Chromobacterium violaceum (ATCC 12472); assay: Antiquorum-sensing assay (violacein pigment inhibition); type: cell-based; settings: Chromobacterium violaceum, ATCC12472, 48 h, read-out: Diameter of quorum-sensing inhibition C. violaceum
Text: The synthesized thiadiazolopyrimidine-based compounds were screened for their antiquorum-sensing (anti-QS) inhibition activity by the Chromobacterium violaceum (ATCC 12472) technique using catechin as the standard compound[28]–[30]. The QS technique of C. violaceum was remarked by the detection of violacein (violet pigment)[31],[32]. Meanwhile, the reactivity of the synthesized thiadiazolopyrimidine-containing derivatives as drugs depends on their efficiency to inhibit the liberation of violacein during the QS technique. The QS inhibition was determined by the following equation: QS inhibition (mm) = (r2 − r1), where r1 is the inhibition radius of the bacterial growth and r2 is the inhibition radius for growth as well as the release of the pigment.
The anti-QS inefficiency was evaluated using the previous technique mentioned in the literature.
The culture was prepared by growing Ch. violaceum ATCC 12472 in LB broth and incubated for 16–18 h in an orbital incubator running at 28°C and 150 rpm. The culture was then adjusted to 0.5 McFarland standard (ca. 1 × 10^6 CFU/mL). Ch. violaceum (50 µL) was inoculated into LB agar (50 mL), poured into plates, and solidified. Wells were made in LB agar medium using cork borer. The tested compounds were dissolved in DMSO 100% in Eppendorf tubes for final concentration of 5 mg/mL, and 50 µL of the test solution was applied into the wells. The positive control (catechin) was also added at the same concentration and volume to each plate. In addition, DMSO (control solvent) was added to each plate. […] Bacterial growth inhibition by the tested compounds was measured as radius (r1) in mm, while both growth and pigment inhibition was measured as radius (r2) in mm. The pigment inhibition (QS inhibition) was determined by subtracting bacterial growth inhibition (r1) from the total radius (r2); thus, QS inhibition = (r2 - r1) in mm.

[8] = test system: DNA; assay: Bleomycin-dependent DNA damage; type: biochemical; settings: test sample 0.1 mg/mL, λ = 532 nm; mean of three replicates ± SD; ascorbic acid 0.24 mM
Text: Bleomycin-dependent DNA damage. The prepared polycyclic thiadiazolopyrimidine-based compounds were examined through the bleomycin-dependant DNA damage, and the results were compared to that of ascorbic acid as a positive control. The obtained data reflected the ability of these derivatives to protect the DNA from damage. The capability of compounds 16a–b and 17a–b to manifest the best protective effect against DNA damage was indicated by the corresponding absorbance values ranging from 0.031 to 0.053 (Table 4)[35],[36].
Bleomycin-dependent DNA damage experiment: To a mixture of 0.5 mg / mL of DNA, 5 mM magnesium chloride, 50 mM ferric chloride and 0.05 mg / mL bleomycin sulfate was prepared. The test sample was prepared at a concentration of 0.1 mg / mL and added to the mixture. After incubation of the mixture for one hour at 37 °C, 0.05 mL of EDTA (0.1 M) was added to terminate the reaction. In the next step, 0.5 mL of TBA (1% w / v) and 0.5 mL of HCl (25% v / v) were added for colour development and the mixture was heated for 10 minutes at 80 °C. The mixture was centrifuged and the absorbance expressed, the amount of damage to the DNA was measured at λ = 532 nm. L-Ascorbic acid (0.24 mM) was used as a positive control.

Compound	MIC [1] [µg/mL]	MIC [2] [µg/mL]	MIC [3] [µg/mL]	MIC [4] [µg/mL]	MIC [5] [µg/mL]	MIC [6] [µg/mL]	zone of inhibition at 5000 µg/mL [7] [mm]	Absorbance (bleomycin-dependent DNA damage) [8]	melting point [°C]
CC1=C(C#N)C2C(=C(N)O1)C(=O)N=C1SC=NN12 (stereo not drawn) [Compound 9a, 6-Amino-9-cyano-8-methyl-5-oxo-5H,9aH-pyrano[3,4-e][1,3,4]thiadiazolo[3,2-a]pyrimidine]	312 (≈ 1200 µM)	625 (≈ 2390 µM)	625 (≈ 2390 µM)	312 (≈ 1200 µM)	> 1250	312 (≈ 1200 µM)	11	0.064 ± 0.06	264 to 265
N#CC1=C(c2ccccc2)OC(N)=C2C(=O)N=C3SC=NN3C12 (stereo not drawn) [Compound 9b, 6-Amino-9-cyano-5-oxo-8-phenyl-5H,9aH-pyrano[3,4-e][1,3,4]thiadiazolo[3,2-a]pyrimidine]	156 (≈ 482 µM)	625 (≈ 1930 µM)	625 (≈ 1930 µM)	312 (≈ 966 µM)	> 1250	312 (≈ 966 µM)	3	0.083 ± 0.08	258 to 260
Cc1nn(-c2ccccc2)c2c1C1C(=C(N)O2)C(=O)N=C2SC=NN21 (stereo not drawn) [Compound 10b, 6-Amino-10-methyl-8-phenyl-8,10b-dihydro-5H-pyrazolo[4′,3′:5,6]pyrano[3,4-e][1,3,4]thiadiazolo[3,2-a]pyrimidin-5-one]	625 (≈ 1770 µM)	312 (≈ 887 µM)	625 (≈ 1770 µM)	625 (≈ 1770 µM)	> 1250	> 1250	9	0.119 ± 0.13	266 to 267
Nc1c2c(=O)nc3scnn3c2nc2nnnn12 [Compound 11, 6-Amino-5H-[1,3,4]thiadiazolo[2′,3′:2,3]pyrimido[4,5-d]tetrazolo[1,5-a]pyrimidin-5-one]	1250 (≈ 4790 µM)	> 1250	1250 (≈ 4790 µM)	312 (≈ 1200 µM)	> 1250	1250 (≈ 4790 µM)	5	0.113 ± 0.16	274 to 275
Nc1c2c(=O)nc3scnn3c2nc2nncn12 [Compound 12, 6-Amino-5H-[1,2,4]triazolo[4′,3′:1,2]pyrimido[5,4-e][1,3,4]thiadiazolo[3,2-a]pyrimidin-5-one]	> 1250	> 1250	> 1250	625 (≈ 2400 µM)	> 1250	> 1250	3	0.107 ± 0.08	290 to 291
Cc1cc2nc3c(c(N)n2n1)c(=O)nc1scnn13 [Compound 13, 6-Amino-9-methyl-5H-pyrazolo[1′,5′:1,2]pyrimido[5,4-e][1,3,4]thiadiazolo[3,2-a]pyrimidin-5-one]	> 1250	1250 (≈ 4570 µM)	> 1250	1250 (≈ 4570 µM)	> 1250	1250 (≈ 4570 µM)	5	0.128 ± 0.11	304 to 306
Cc1ccc(N=Nc2c(N)nn3c(N)c4c(=O)nc5scnn5c4nc23)cc1 [Compound 16a, 6,9-Diamino-10-(4-methylphenylazo)-5H-pyrazolo[1′,5′:1,2]pyrimido[5,4-e][1,3,4]thiadiazolo[3,2-a]pyrimidin-5-one]	> 1250	78 (≈ 199 µM)	156 (≈ 398 µM)	1250 (≈ 3190 µM)	> 1250	> 1250	9	0.039 ± 0.07	> 320
COc1ccc(N=Nc2c(N)nn3c(N)c4c(=O)nc5scnn5c4nc23)cc1 [Compound 16b, 6,9-Diamino-10-(4-methoxyphenylazo)-5H-pyrazolo[1′,5′:1,2]pyrimido[5,4-e][1,3,4]thiadiazolo[3,2-a]pyrimidin-5-one]	> 1250	19.5 (≈ 47.7 µM)	78 (≈ 191 µM)	625 (≈ 1530 µM)	> 1250	> 1250	12	0.031 ± 0.04	> 320
Cc1ccc(N=Nc2c(O)nn3c(N)c4c(=O)nc5scnn5c4nc23)cc1 [Compound 17a, 6-Amino-9-hydroxy-10-(4-methylphenylazo)-5H-pyrazolo[1′,5′:1,2]pyrimido[5,4-e][1,3,4]thiadiazolo[3,2-a]pyrimidin-5-one]	625 (≈ 1590 µM)	156 (≈ 397 µM)	156 (≈ 397 µM)	625 (≈ 1590 µM)	1250 (≈ 3180 µM)	> 1250	11	0.053 ± 0.05	264 to 265
COc1ccc(N=Nc2c(O)nn3c(N)c4c(=O)nc5scnn5c4nc23)cc1 [Compound 17b, 6-Amino-9-hydroxy-10-(4-methoxyphenylazo)-5H-pyrazolo[1′,5′:1,2]pyrimido[5,4-e][1,3,4]thiadiazolo[3,2-a]pyrimidin-5-one]	625 (≈ 1530 µM)	19.5 (≈ 47.6 µM)	39 (≈ 95.3 µM)	1250 (≈ 3050 µM)	1250 (≈ 3050 µM)	1250 (≈ 3050 µM)	12	0.042 ± 0.03	280 to 281
